{
  "source": "patent US20150164762A1",
  "about": "“USE OF ETHANOLAMINE PHOSPHATE” (priority 2012, published 2015)",
  "system": "BEAS-2B",
  "experiment": "Comprehensive gene expression analysis with Whole Human Genome DNA microarray after EP treatment",
  "type": "cell-based",
  "description": "Cells of the established normal human airway epithelial cell line BEAS-2B were used in the experiment. These cells were expansively cultured in 10% FBS RPMI-1640, and seeded at a density of 1×10^5/cm^2 on a 24-well plate. After 24 hours 0.1% FBS RPMI-1640 was substituted, and EP was administered to a final concentration of 0 or 1 mM (n=4). After 24 hours, the cells were used as the DNA microarray samples. RNA was extracted using a QIAGEN RNeasy Mini Kit. The DNA microarray test was performed using a Whole Human Genome DNA microarray 4×44K (Agilent), and the necessary labeling reagents and the like for the DNA microarray test were all from Agilent. The DNA microarray test data were analyzed statistically with GeneSpring (Agilent) dedicated analysis software, and gene function analysis (Gene Ontology (GO) analysis) was performed based on differential expression. The purpose of the GO analysis is to determine stochastically the degree to which gene sets with statistically significant differential expression correspond to known functional classification gene sets. […] The p-value is calculated according to the following formula.",
  "key": {"[1]": {"conditions": "probe A_23_P1361, NM_002860, EP vs control"}, "[2]": {"conditions": "probe A_23_P5392, 1 mM EP, 24 h"}, "[3]": {"conditions": "probe A_23_P8961, NM_000880, EP vs control"}, "[4]": {"conditions": "probe A_23_P15247, 1 mM EP, 24 h"}, "[5]": {"conditions": "probe A_23_P16523, NM_004864, EP vs control"}, "[6]": {"conditions": "probe A_23_P21134, 1 mM EP, 24 h"}, "[7]": {"conditions": "probe A_23_P23960, 1 mM EP, 24 h"}, "[8]": {"conditions": "probe A_23_P25354, 1 mM EP, 24 h"}, "[9]": {"conditions": "probe A_23_P28625, 1 mM EP, 24 h"}},
  "data": [
    {"smiles": "NCCOP(=O)(O)O", "note": "[EP, Ethanolamine phosphate]", "values": [
      {"measurement": "R*: Ratio to control", "setting": "P2RX7, probe A_23_P25354", "value": 0.561, "unit": "times"},
      {"measurement": "log2 [ratio]", "setting": "P2RX7, probe A_23_P25354", "value": "−0.834"},
      {"measurement": "R*: Ratio to control", "setting": "P2RX7, probe A_24_P319113", "value": 0.586, "unit": "times"},
      {"measurement": "log2 [ratio]", "setting": "P2RX7, probe A_24_P319113", "value": "−0.772"},
      {"measurement": "R*: Ratio to control", "setting": "PERP, probe A_23_P214950", "value": 0.521, "unit": "times"},
      {"measurement": "log2 [ratio]", "setting": "PERP, probe A_23_P214950", "value": "−0.941"},
      {"measurement": "R*: Ratio to control", "setting": "PHLDA3, probe A_23_P62959", "value": 0.271, "unit": "times"},
      {"measurement": "log2 [ratio]", "setting": "PHLDA3, probe A_23_P62959", "value": "−1.884"},
      {"measurement": "R*: Ratio to control", "setting": "PLK1, probe A_23_P118174", "value": 2.447, "unit": "times"},
      {"measurement": "log2 [ratio]", "setting": "PLK1, probe A_23_P118174", "value": 1.291},
      {"measurement": "R*: Ratio to control", "setting": "PLK1, probe A_24_P313504", "value": 1.939, "unit": "times"},
      {"measurement": "log2 [ratio]", "setting": "PLK1, probe A_24_P313504", "value": 0.955},
      {"measurement": "R*: Ratio to control", "setting": "PMAIP1, probe A_23_P207999", "value": 0.344, "unit": "times"},
      {"measurement": "log2 [ratio]", "setting": "PMAIP1, probe A_23_P207999", "value": "−1.540"},
      {"measurement": "R*: Ratio to control", "setting": "PML, probe A_23_P358944", "value": 0.586, "unit": "times"},
      {"measurement": "log2 [ratio]", "setting": "PML, probe A_23_P358944", "value": "−0.770"},
      {"measurement": "R*: Ratio to control", "setting": "PPAP2B, probe A_23_P201808", "value": 1.919, "unit": "times"},
      {"measurement": "log2 [ratio]", "setting": "PPAP2B, probe A_23_P201808", "value": 0.941},
      {"measurement": "R*: Ratio to control", "setting": "ROBO4, probe A_23_P104881", "value": 1.785, "unit": "times"},
      {"measurement": "log2 [ratio]", "setting": "ROBO4, probe A_23_P104881", "value": 0.836},
      {"measurement": "R*: Ratio to control", "setting": "ROBO4, probe A_23_P344421", "value": 1.633, "unit": "times"},
      {"measurement": "log2 [ratio]", "setting": "ROBO4, probe A_23_P344421", "value": 0.707},
      {"measurement": "R*: Ratio to control", "setting": "RTN4, probe A_23_P56933", "value": 1.510, "unit": "times"},
      {"measurement": "log2 [ratio]", "setting": "RTN4, probe A_23_P56933", "value": 0.594},
      {"measurement": "R*: Ratio to control", "setting": "SEMA4D, probe A_24_P261169", "value": 0.558, "unit": "times"},
      {"measurement": "log2 [ratio]", "setting": "SEMA4D, probe A_24_P261169", "value": "−0.842"},
      {"measurement": "R*: Ratio to control", "setting": "SEPT4, probe A_23_P207003", "value": 0.503, "unit": "times"},
      {"measurement": "log2 [ratio]", "setting": "SEPT4, probe A_23_P207003", "value": "−0.990"},
      {"measurement": "R*: Ratio to control", "setting": "SKP2, probe A_23_P156310", "value": 1.531, "unit": "times"},
      {"measurement": "log2 [ratio]", "setting": "SKP2, probe A_23_P156310", "value": 0.615},
      {"measurement": "R*: Ratio to control", "setting": "SOX7, probe A_23_P169738", "value": 0.362, "unit": "times"},
      {"measurement": "log2 [ratio]", "setting": "SOX7, probe A_23_P169738", "value": "−1.464"},
      {"measurement": "R*: Ratio to control", "setting": "SOX7, probe A_23_P306987", "value": 0.338, "unit": "times"},
      {"measurement": "log2 [ratio]", "setting": "SOX7, probe A_23_P306987", "value": "−1.566"},
      {"measurement": "R*: Ratio to control", "setting": "SOX7, probe A_24_P226782", "value": 0.607, "unit": "times"},
      {"measurement": "log2 [ratio]", "setting": "SOX7, probe A_24_P226782", "value": "−0.720"},
      {"measurement": "R*: Ratio to control", "setting": "SST, probe A_23_P252817", "value": 0.666, "unit": "times"},
      {"measurement": "log2 [ratio]", "setting": "SST, probe A_23_P252817", "value": "−0.587"},
      {"measurement": "R*: Ratio to control", "setting": "TACSTD2, probe A_23_P149529", "value": 1.507, "unit": "times"},
      {"measurement": "log2 [ratio]", "setting": "TACSTD2, probe A_23_P149529", "value": 0.591},
      {"measurement": "R*: Ratio to control", "setting": "TGFBR2, probe A_23_P211957", "value": 1.634, "unit": "times"},
      {"measurement": "log2 [ratio]", "setting": "TGFBR2, probe A_23_P211957", "value": 0.708},
      {"measurement": "R*: Ratio to control", "setting": "TGFBR2, probe A_23_P337242", "value": 1.630, "unit": "times"},
      {"measurement": "log2 [ratio]", "setting": "TGFBR2, probe A_23_P337242", "value": 0.705},
      {"measurement": "R*: Ratio to control", "setting": "TNFRSF17, probe A_23_P37736", "value": 2.525, "unit": "times"},
      {"measurement": "log2 [ratio]", "setting": "TNFRSF17, probe A_23_P37736", "value": 1.336},
      {"measurement": "R*: Ratio to control", "setting": "VEGFC, probe A_23_P167096", "value": 1.637, "unit": "times"},
      {"measurement": "log2 [ratio]", "setting": "VEGFC, probe A_23_P167096", "value": 0.711},
      {"measurement": "R*: Ratio to control", "setting": "WARS2, probe A_23_P74380", "value": 1.594, "unit": "times"},
      {"measurement": "log2 [ratio]", "setting": "WARS2, probe A_23_P74380", "value": 0.673},
      {"measurement": "R*: Ratio to control", "setting": "WDR12, probe A_23_P28625", "value": 1.676, "unit": "times"},
      {"measurement": "log2 [ratio]", "setting": "WDR12, probe A_23_P28625", "value": 0.745},
      {"measurement": "R*: Ratio to control", "setting": "ZFPM2, probe A_23_P168909", "value": 1.678, "unit": "times"},
      {"measurement": "log2 [ratio]", "setting": "ZFPM2, probe A_23_P168909", "value": 0.746},
      {"measurement": "ALDH18A1 gene expression, R* ratio to control", "setting": "[1]", "value": 1.460, "unit": "times"},
      {"measurement": "ALDH18A1 gene expression, log2 [ratio]", "setting": "[1]", "value": 0.546},
      {"measurement": "TP53I3 expression R*: Ratio to control", "setting": "[2]", "value": 0.423, "unit": "times"},
      {"measurement": "TP53I3 expression log2 [ratio]", "setting": "[2]", "value": "−1.241"},
      {"measurement": "IL7 gene expression, R* ratio to control", "setting": "[3]", "value": 0.103, "unit": "times"},
      {"measurement": "IL7 gene expression, log2 [ratio]", "setting": "[3]", "value": "−3.273"},
      {"measurement": "C16orf5 expression R*: Ratio to control", "setting": "[4]", "value": 0.519, "unit": "times"},
      {"measurement": "C16orf5 expression log2 [ratio]", "setting": "[4]", "value": "−0.947"},
      {"measurement": "GDF15 gene expression, R* ratio to control", "setting": "[5]", "value": 0.104, "unit": "times"},
      {"measurement": "GDF15 gene expression, log2 [ratio]", "setting": "[5]", "value": "−3.265"},
      {"measurement": "DDIT3 expression R*: Ratio to control", "setting": "[6]", "value": 0.210, "unit": "times"},
      {"measurement": "DDIT3 expression log2 [ratio]", "setting": "[6]", "value": "−2.249"},
      {"measurement": "BLOC1S2 expression R*: Ratio to control", "setting": "[7]", "value": 0.398, "unit": "times"},
      {"measurement": "BLOC1S2 expression log2 [ratio]", "setting": "[7]", "value": "−1.336"},
      {"measurement": "P2RX7 expression R: Ratio to control", "setting": "[8]", "value": 0.661, "unit": "times"},
      {"measurement": "P2RX7 expression log2 [ratio]", "setting": "[8]", "value": "−0.834"},
      {"measurement": "WDR12 expression R*: Ratio to control", "setting": "[9]", "value": 1.676, "unit": "times"},
      {"measurement": "WDR12 expression log2 [ratio]", "setting": "[9]", "value": 0.745},
      {"measurement": "BDH1 gene expression, R* ratio to control", "setting": "probe A_23_P29754, NM_203314, EP vs control", "value": 1.462, "unit": "times"}
    ]}
  ]
}
